Results from patent US10077272B2, “Heteroaromatic compounds and their use as dopamine D1 ligands” (PFIZER INC., priority 2014, dated 2018).
Structures can show the parent of a compound that is named as a salt.

biological target: Human D1 Receptor (Homo sapiens (Human), UniProt P21728); experiment: Human D1 Receptor Binding Assay ([3H]-SCH23390 competition); conditions: competition with 0.5 nM [3H]-SCH23390, over-expressing LTK human cell lines, 30 min at 37° C.; values marked ^a are from a single determination; read-out: Human D1 Receptor Binding, Ki (nM); Geometric mean of 2-4 determinations (unless otherwise indicated)
Protocol: D1 binding assays were performed using over-expressing LTK human cell lines. […] These ligand and tissue concentrations were used in time course studies to determine linearity and equilibrium conditions for binding. […] The pellet was resuspended in assay buffer [50 mM Tris (pH 7.4@ RT) containing 4 mM MgSO4 and 0.5 mM EDTA]. […] Non-specific binding was determined by radioligand binding in the presence of a saturating concentration of (+)-Butaclamol (10 μM), a D1 antagonist. After a 30 minute incubation period at 37° C., assay samples were rapidly filtered through Unifilter-96 GF/B PEI-coated filter plates and rinsed with 50 mM Tris buffer (pH 7.4 at 4° C.). […] Ki values were calculated according to the Cheng-Prusoff equation: […]

Chain of Human D1 Receptor (P21728 whole entry): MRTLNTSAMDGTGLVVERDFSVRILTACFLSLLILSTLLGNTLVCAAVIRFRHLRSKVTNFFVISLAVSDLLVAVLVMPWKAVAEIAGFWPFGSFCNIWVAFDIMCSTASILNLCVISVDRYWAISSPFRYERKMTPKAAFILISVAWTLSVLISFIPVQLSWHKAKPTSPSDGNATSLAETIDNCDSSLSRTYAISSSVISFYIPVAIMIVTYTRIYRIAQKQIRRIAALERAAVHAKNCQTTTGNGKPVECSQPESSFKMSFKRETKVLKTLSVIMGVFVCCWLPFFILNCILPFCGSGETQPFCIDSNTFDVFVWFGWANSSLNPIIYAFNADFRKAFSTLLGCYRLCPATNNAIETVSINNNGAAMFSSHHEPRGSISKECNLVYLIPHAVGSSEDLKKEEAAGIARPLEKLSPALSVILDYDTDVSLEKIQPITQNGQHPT

Question: How did the Ki turn out when Cc1cc(Oc2nccc3onc(C)c23)ccc1-c1c(C)n[nH]c(=O)c1C [Example 16, 4,6-dimethyl-5-{2-methyl-4-[(3-methyl[1,2]oxazolo[4,5-c]pyridin-4-yl)oxy]phenyl}pyridazin-3(2H)-one, trifluoroacetic acid salt] was run?
Answer: 326 nM

Question: Which Ki does the source give for Cc1cc(Oc2ncnc3occc23)ccc1-c1c(C)ncc(=O)n1C (single isomer, unassigned) [Example 5, (+)-6-[4-(furo[2,3-d]pyrimidin-4-yloxy)-2-methylphenyl]-1,5-dimethylpyrazin-2(1H)-one] here?
Answer: 400 nM

Question: For CCn1c(-c2ccc(Oc3ncnc4occc34)cc2)c(C)c(=O)[nH]c1=O [Example 20, 1-ethyl-6-[4-(furo[2,3-d]pyrimidin-4-yloxy)phenyl]-5-methylpyrimidine-2,4(1H,3H)-dione], which Ki is on record?
Answer: 179 nM

Question: For Cc1cc(Oc2ncnc3occc23)ccc1-c1cn[nH]c(=O)c1C [Example 14, 5-[4-(furo[2,3-d]pyrimidin-4-yloxy)-2-methylphenyl]-4-methylpyridazin-3(2H)-one], which Ki is on record?
Answer: 372 nM

Question: Which Ki does the source give for CCc1c(-c2ccc(Oc3ncnc4occc34)cc2)n(CC)c(=O)[nH]c1=O [Example 23, 1,5-diethyl-6-[4-(furo[2,3-d]pyrimidin-4-yloxy)phenyl]pyrimidine-2,4(1H,3H)-dione] here?
Answer: 309 nM

Question: Which Ki does the source give for Cc1n[nH]c(=O)c(C)c1-c1ccc(Oc2ncnc3occc23)cc1 [Example 13, 5-[4-(furo[2,3-d]pyrimidin-4-yloxy)phenyl]-4,6-dimethylpyridazin-3(2H)-one] here?
Answer: 70.3 nM

Question: Which Ki does the source give for COCCn1c(-c2ccc(Oc3ncnc4occc34)cc2)c(C)c(=O)[nH]c1=O [Example 19, 6-[4-(furo[2,3-d]pyrimidin-4-yloxy)phenyl]-1-(2-methoxyethyl)-5-methylpyrimidine-2,4(1H,3H)-dione] here?
Answer: 900 nM

Question: Cc1cc(Oc2nccc3[nH]cnc23)ccc1-c1c(C)ncnc1C#N [Example 12, 5-[4-(1H-imidazo[4,5-c]pyridin-4-yloxy)-2-methylphenyl]-6-methylpyrimidine-4-carbonitrile] was tested. Which Ki did it give?
Answer: 367 nM

Question: Cc1c(-c2ccc(Oc3ncnc4occc34)cc2)n(C)c(=O)[nH]c1=O [Example 9, 6-[4-(furo[2,3-d]pyrimidin-4-yloxy)phenyl]-1,5-dimethylpyrimidine-2,4(1H,3H)-dione] was tested. Which Ki did it give?
Answer: 142 nM

Question: Which Ki does the source give for CCc1c(-c2ccc(Oc3ncnc4occc34)cc2)n(C)c(=O)[nH]c1=O [Example 18, 5-ethyl-6-[4-(furo[2,3-d]pyrimidin-4-yloxy)phenyl]-1-methylpyrimidine-2,4(1H,3H)-dione] here?
Answer: 274 nM

Question: For Cc1cc(Oc2ncnc3occc23)ccc1-c1c(C)n[nH]c(=O)c1C (single isomer, unassigned) [Example 8, (−)-5-[4-(furo[2,3-d]pyrimidin-4-yloxy)-2-methylphenyl]-4,6-dimethylpyridazin-3(2H)-one], which Ki is on record?
Answer: 40.2 nM

Question: For Cc1cc(Oc2ncnc3occc23)ccc1-c1c(C)ncc(=O)n1C [Example 3, 6-[4-(furo[2,3-d]pyrimidin-4-yloxy)-2-methylphenyl]-1,5-dimethylpyrazin-2(1H)-one], which Ki is on record?
Answer: 196 nM

Question: How did the Ki turn out when Cc1cc(Oc2ncnc3occc23)ccc1-c1c(C)ncc(=O)n1C (single isomer, unassigned) [Example 4, (−)-6-[4-(furo[2,3-d]pyrimidin-4-yloxy)-2-methylphenyl]-1,5-dimethylpyrazin-2(1H)-one] was run?
Answer: 127 nM

Question: Which Ki does the source give for Cc1cc(Oc2ncnc3occc23)ccc1-c1c(C)n[nH]c(=O)c1C [Example 6, 5-[4-(furo[2,3-d]pyrimidin-4-yloxy)-2-methylphenyl]-4,6-dimethylpyridazin-3(2H)-one] here?
Answer: 44.7 nM

Question: CCc1c(-c2ccc(Oc3ncnc4occc34)cc2)n(C2CC2)c(=O)[nH]c1=O [Example 22, 1-cyclopropyl-5-ethyl-6-[4-(furo[2,3-d]pyrimidin-4-yloxy)phenyl]pyrimidine-2,4(1H,3H)-dione] was tested. Which Ki did it give?
Answer: 142 nM

Question: With Cc1cc(Oc2ncnc3occc23)ccc1-c1c(C)n[nH]c(=O)c1C (single isomer, unassigned) [Example 7, (+)-5-[4-(furo[2,3-d]pyrimidin-4-yloxy)-2-methylphenyl]-4,6-dimethylpyridazin-3(2H)-one] as the molecule, how does the Ki read?
Answer: 30.7 nM

Question: How did the Ki turn out when Cc1c(-c2ccc(Oc3ncnc4occc34)cc2)n(C2CC2)c(=O)[nH]c1=O [Example 21, 1-cyclopropyl-6-[4-(furo[2,3-d]pyrimidin-4-yloxy)phenyl]-5-methylpyrimidine-2,4(1H,3H)-dione] was run?
Answer: 122 nM

Question: How did the Ki turn out when Cc1cc(Oc2nccc3onc(C)c23)ccc1-c1c(C)ncc(=O)n1C [Example 17, 1,5-dimethyl-6-{2-methyl-4-[(3-methyl[1,2]oxazolo[4,5-c]pyridin-4-yl)oxy]phenyl}pyrazin-2(1H)-one, trifluoroacetic acid salt] was run?
Answer: 1730 nM

Question: Which Ki does the source give for Cc1c(-c2ccc(Oc3nccc4onc(C)c34)cc2)n(C)c(=O)[nH]c1=O [Example 15, 1,5-dimethyl-6-{4-[(3-methyl[1,2]oxazolo[4,5-c]pyridin-4-yl)oxy]phenyl}pyrimidine-2,4(1H,3H)-dione] here?
Answer: 280 nM
